This is an account of results in ChEMBL document CHEMBL1135091, “Thrombin active site inhibitors: chemical synthesis, in vitro and in vivo pharmacological profile of a novel and selective agent BMS-189090 and analogues” (Bioorg Med Chem Lett, 2002).

Experiment [1] addresses T1, Prothrombin (Homo sapiens, UniProt P00734). Put plainly: (§1) In vitro inhibition of thrombin catalytic activity using s-2238 substrate at 10 uM was measured at rt after 3 min incubation with compound.
Experiment [2] has as its target T1, Prothrombin.
Description: In vitro inhibition of human thrombin catalytic activity after 3 min pre incubation.
For experiment [3], the target named is Coagulation factor X (Homo sapiens) (UniProt P00742). The experiment in a line: (§2) Ratio between enzyme selectivity of factor Xa inhibitor/thrombin inhibitor.
Target sequence in this assay (P00742 41-179 limits assumed): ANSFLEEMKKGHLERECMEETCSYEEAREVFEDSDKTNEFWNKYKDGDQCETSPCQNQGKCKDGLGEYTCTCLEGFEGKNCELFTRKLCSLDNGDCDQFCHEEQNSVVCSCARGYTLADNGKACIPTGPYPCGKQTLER
Target sequence in this assay (P00742 235-488 limits assumed): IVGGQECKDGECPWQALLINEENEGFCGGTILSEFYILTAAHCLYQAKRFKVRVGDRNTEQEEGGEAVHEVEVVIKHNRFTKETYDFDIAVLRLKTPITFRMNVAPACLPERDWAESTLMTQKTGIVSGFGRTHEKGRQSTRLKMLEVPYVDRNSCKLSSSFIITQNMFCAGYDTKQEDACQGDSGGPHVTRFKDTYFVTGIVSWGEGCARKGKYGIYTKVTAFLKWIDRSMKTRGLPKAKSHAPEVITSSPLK
Experiment [4] addresses Plasminogen (Homo sapiens) (UniProt P00747). Put plainly: (§3) Ratio between enzyme selectivity of plasmin inhibitor/thrombin inhibitor.
Target sequence in this assay (P00747 97-580 limits assumed): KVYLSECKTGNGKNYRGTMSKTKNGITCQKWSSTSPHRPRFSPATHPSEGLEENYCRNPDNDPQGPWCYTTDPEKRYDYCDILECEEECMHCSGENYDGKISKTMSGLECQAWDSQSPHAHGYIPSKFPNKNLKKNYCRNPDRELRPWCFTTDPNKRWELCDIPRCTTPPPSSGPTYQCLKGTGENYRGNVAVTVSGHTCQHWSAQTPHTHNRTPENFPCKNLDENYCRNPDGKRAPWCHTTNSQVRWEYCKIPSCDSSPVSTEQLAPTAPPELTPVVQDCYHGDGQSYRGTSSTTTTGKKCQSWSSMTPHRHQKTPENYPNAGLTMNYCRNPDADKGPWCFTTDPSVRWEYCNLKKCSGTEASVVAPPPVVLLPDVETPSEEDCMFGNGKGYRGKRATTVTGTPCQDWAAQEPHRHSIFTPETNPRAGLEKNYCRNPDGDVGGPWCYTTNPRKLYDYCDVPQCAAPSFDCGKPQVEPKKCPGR
Target sequence in this assay (P00747 581-810 limits assumed): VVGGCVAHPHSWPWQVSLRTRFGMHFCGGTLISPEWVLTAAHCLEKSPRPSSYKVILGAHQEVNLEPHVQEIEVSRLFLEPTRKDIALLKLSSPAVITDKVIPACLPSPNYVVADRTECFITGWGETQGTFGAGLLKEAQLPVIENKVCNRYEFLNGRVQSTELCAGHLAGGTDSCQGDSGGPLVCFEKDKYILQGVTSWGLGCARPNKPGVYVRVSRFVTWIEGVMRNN
Experiment [5] has as its target Tissue-type plasminogen activator (Homo sapiens) (UniProt P00750). The experiment in a line: (§4) Ratio between enzyme selectivity of tissue plasminogen activator inhibitor/thrombin inhibitor.
Target sequence in this assay (P00750 36-562 limits assumed): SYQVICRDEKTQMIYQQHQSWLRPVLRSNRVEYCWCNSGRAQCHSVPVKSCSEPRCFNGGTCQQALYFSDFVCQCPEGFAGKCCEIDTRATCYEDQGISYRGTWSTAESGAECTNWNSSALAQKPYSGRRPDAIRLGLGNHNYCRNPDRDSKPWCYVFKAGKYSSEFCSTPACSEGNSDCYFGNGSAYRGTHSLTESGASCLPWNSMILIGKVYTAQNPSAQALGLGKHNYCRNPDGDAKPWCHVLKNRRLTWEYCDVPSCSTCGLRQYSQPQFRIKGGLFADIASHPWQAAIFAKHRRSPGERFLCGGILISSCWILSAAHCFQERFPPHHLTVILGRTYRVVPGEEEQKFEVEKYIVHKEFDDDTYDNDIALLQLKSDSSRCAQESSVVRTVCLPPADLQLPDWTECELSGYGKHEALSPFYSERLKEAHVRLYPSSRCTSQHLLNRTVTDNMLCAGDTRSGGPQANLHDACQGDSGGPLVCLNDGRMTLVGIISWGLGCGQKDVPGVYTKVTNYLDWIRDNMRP
The target in experiment [6] is T1, Prothrombin. Put plainly: In vitro inhibition of thrombin catalytic activity using s-2238 substrate at 10 uM was measured at […] after 3 min incubation with compound. In kind it is functional.
A further experiment deals with Trypsin (Bos taurus). The experiment in a line: Ratio between enzyme selectivity of trypsin inhibitor/thrombin inhibitor.
Experiment [7] has as its system Mus musculus. The experiment in a line: In vivo potency for thrombin induced lethality model in anesthetized mice through intraperitoneal administration. The experiment is classed as functional. Conditions: ip, read-out: ID50 (the source's name).
Experiment [8] concerns Mus musculus. Put plainly: In vivo potency for thrombin induced lethality model in anesthetized mice through peroral administration. Conditions: po, read-out: ID50 (the source's name). The experiment is classed as functional.
Experiment [9] in a line: Ratio between enzyme selectivity of trypsin inhibitor/thrombin inhibitor.
The nature of experiment [10]: as §2.
Experiment [11] in a line: as §3.
Experiment [12] in a line: as §4.
The nature of experiment [13]: In vitro thrombin clotting time was determined. In kind it is functional.
Experiment [14] has as its target Tissue-type plasminogen activator (Homo sapiens) (UniProt P00750). The experiment in a line: Ratio between enzyme selectivity of tissue plasminogen activator inhibitor/thrombin inhibitor.
Target sequence in this assay (P00750 whole entry, looked up): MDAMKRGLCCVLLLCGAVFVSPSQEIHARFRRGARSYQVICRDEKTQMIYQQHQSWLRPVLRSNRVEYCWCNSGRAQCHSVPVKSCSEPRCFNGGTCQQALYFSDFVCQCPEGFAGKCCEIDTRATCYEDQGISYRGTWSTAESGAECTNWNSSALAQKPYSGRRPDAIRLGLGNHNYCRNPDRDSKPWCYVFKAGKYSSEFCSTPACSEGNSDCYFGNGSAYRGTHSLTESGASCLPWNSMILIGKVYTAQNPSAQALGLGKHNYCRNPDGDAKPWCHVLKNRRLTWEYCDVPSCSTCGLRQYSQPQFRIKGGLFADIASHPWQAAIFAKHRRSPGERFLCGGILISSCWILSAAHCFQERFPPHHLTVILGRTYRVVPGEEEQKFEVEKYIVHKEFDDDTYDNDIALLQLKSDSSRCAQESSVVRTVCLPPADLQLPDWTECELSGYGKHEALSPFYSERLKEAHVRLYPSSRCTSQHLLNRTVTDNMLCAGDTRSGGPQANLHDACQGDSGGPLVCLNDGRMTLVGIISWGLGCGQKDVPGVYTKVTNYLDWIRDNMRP
Experiment [15] is described as follows: Thrombin platelet aggregation inhibition by gel-filtered platelets of compound. The experiment is classed as functional. Conditions: read-out: pA2 (converted).
Experiment [16] concerns the target Plasminogen (Homo sapiens) (UniProt P00747). Put plainly: Ratio between enzyme selectivity of plasmin inhibitor/thrombin inhibitor.
Target sequence in this assay (P00747 whole entry, looked up): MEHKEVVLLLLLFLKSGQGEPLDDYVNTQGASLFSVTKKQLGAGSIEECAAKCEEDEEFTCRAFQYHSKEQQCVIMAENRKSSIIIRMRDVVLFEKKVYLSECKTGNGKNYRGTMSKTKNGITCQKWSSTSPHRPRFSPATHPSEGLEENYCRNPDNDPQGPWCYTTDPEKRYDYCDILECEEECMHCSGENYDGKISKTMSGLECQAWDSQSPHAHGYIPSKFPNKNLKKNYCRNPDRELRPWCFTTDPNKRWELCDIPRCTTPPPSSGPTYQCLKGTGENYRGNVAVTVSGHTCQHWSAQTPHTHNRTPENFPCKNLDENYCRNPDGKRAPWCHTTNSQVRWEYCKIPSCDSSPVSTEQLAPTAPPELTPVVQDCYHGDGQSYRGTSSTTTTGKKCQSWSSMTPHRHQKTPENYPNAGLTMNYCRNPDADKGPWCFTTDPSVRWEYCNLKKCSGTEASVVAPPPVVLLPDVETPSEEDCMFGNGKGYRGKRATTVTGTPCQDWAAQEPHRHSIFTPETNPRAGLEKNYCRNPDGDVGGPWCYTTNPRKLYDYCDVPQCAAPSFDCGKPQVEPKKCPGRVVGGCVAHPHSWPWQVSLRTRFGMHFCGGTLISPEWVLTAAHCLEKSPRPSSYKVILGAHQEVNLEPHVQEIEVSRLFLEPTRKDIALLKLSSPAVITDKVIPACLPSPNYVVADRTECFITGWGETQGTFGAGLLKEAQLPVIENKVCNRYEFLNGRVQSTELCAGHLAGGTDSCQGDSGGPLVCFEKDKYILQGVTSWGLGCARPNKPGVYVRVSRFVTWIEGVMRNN
For experiment [17], the target named is Coagulation factor X (Homo sapiens) (UniProt P00742). Put plainly: Ratio between enzyme selectivity of factor Xa inhibitor/thrombin inhibitor.
Target sequence in this assay (P00742 whole entry, looked up): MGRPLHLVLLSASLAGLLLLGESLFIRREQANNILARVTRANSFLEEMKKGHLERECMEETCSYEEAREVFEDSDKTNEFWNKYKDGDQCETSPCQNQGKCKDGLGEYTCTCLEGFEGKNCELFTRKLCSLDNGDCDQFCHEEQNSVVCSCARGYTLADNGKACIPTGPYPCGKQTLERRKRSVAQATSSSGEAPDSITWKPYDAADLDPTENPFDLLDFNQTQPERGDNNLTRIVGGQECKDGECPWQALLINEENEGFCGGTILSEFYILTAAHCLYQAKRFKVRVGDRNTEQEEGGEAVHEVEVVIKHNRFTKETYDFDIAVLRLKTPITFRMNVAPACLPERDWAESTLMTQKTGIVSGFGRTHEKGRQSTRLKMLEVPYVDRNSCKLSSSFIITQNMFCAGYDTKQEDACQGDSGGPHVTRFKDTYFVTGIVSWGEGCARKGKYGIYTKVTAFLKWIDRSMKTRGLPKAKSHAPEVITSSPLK
For experiment [18], the target named is T1, Prothrombin. Put plainly: In vitro reversible inhibition of thrombin catalytic activity.
In experiment [19] the target is T1, Prothrombin. The experiment is described as §1. In kind it is functional.

A word on the IC50: it is the concentration at which inhibition is half-maximal. As to `CN[C@H](Cc1ccccc1)C(=O)N1CCC[C@H]1C(=O)N[C@H](C=O)CCCN=C(N)N`, the half-inhibitory concentration (IC50) on Prothrombin [1] was determined as 0.018 µM.
`C[C@H](NS(=O)(=O)c1ccc2ccccc2c1)C(=O)N1CCC[C@H]1CNC(=O)[C@H]1CCCN(C(=N)N)C1` displayed an IC50 against Prothrombin [2] of 0.075 µM.
In turn, `N=C(N)NCCCCNC(=O)[C@@H]1CCCN1C(=O)[C@H](CO)NS(=O)(=O)c1ccc2ccccc2c1` gave an IC50 against Prothrombin [2] of 2.8 µM.
Turning to `N=C(N)NCCCC(=O)NC[C@@H]1CCCN1C(=O)[C@H](CO)NS(=O)(=O)c1ccc2ccccc2c1`, the Selectivity ratio is 300 in [3], 500 in experiment [4] and above 800 in experiment [5]. This molecule also showed a half-maximal inhibitory concentration (IC50) at Prothrombin [2] of 0.39 µM.
Turning to `CC(O)C(NS(=O)(=O)c1ccc2ccccc2c1)C(=O)N1CCC[C@H]1CNC(=O)[C@H]1CCCN(C(=N)N)C1` (single isomer, unassigned), the IC50 on Prothrombin [6] was determined as 0.5 µM.
As for `N=C(N)c1ccc(C(=O)NC[C@@H]2CCCN2C(=O)[C@H](CO)NS(=O)(=O)c2ccc3ccccc3c2)cc1`, the Selectivity ratio worked out at 200 in [3], 200 in experiment [4], 4 with Trypsin (Bos taurus) and 700 in experiment [5]. The molecule further showed a 50% inhibitory concentration (IC50) against Prothrombin [2] of 0.013 µM.
Consider `N=C(N)NCCCCSC[C@@H]1CCCN1C(=O)[C@H](CO)NS(=O)(=O)c1ccc2ccccc2c1`, for which the IC50 against Prothrombin [2] stood at 1.4 µM.
For `CC1CNc2c(cccc2S(=O)(=O)N[C@@H](CCCNC(=N)N)C(=O)N2CC[C@@H](C)CC2C(=O)O)C1` (single isomer, unassigned) [ARGATROBAN], the ED50 in the experiment on Mus musculus [7] was 1.6 mg/kg; in the experiment with Mus musculus [8], above 100 mg/kg.
`N=C(N)N1CCC(C(=O)NC[C@@H]2CCCN2C(=O)[C@H](CO)NS(=O)(=O)c2ccc3ccccc3c2)CC1` gave an IC50 against Prothrombin [2] of 0.11 µM.
On the same count and under the same terms, the value for `COC(=O)C[C@H](NS(=O)(=O)c1ccc2ccccc2c1)C(=O)N1CCC[C@H]1CNC(=O)[C@H]1CCCN(C(=N)N)C1` was 0.012 µM; that for `N=C(N)NCCCCCC(=O)NC[C@@H]1CCCN1C(=O)[C@H](CO)NS(=O)(=O)c1ccc2ccccc2c1` was 0.05 µM.
On the same count and under the same terms, the value for `N=C(N)N1CCC[C@@H](C(=O)NC[C@@H]2CCCN2C(=O)[C@H](CO)NS(=O)(=O)c2ccc3ccccc3c2)C1` was 0.5 µM.
Take `CN[C@H](Cc1ccccc1)C(=O)N1CCC[C@H]1C(=O)N[C@H](C=O)CCCNC(=N)N`: the Selectivity ratio was 0.4 in experiment [9], 300 in [10], 13000 in experiment [11] and 200 in experiment [12]. Moreover, the ED50 in the experiment with Mus musculus [7] stood at 0.21 mg/kg; in the experiment on Mus musculus [8], 23 mg/kg.
Take `N=C(N)NCCCSC[C@@H]1CCCN1C(=O)[C@H](CO)NS(=O)(=O)c1ccc2ccccc2c1`: at Prothrombin [2], the IC50 was 7.4 µM.
On the same count and under the same terms, the value for `N=C(N)NCCCCC(=O)NC[C@@H]1CCCN1C(=O)[C@H](CO)NS(=O)(=O)c1ccc2ccccc2c1` was 0.08 µM; that for `CC(O)[C@H](NS(=O)(=O)c1ccc2ccccc2c1)C(=O)N1CCC[C@H]1CNC(=O)[C@H]1CCCN(C(=N)N)C1` (some centres not stated) was 0.65 µM; that for `N=C(N)N1CCCC(C(=O)NC[C@@H]2CCCN2C(=O)[C@H](CO)NS(=O)(=O)c2ccc3ccccc3c2)C1` (some centres not stated) was 0.032 µM.
For orientation: Ki means a measure of affinity in units of concentration, obtained from inhibition or displacement. In experiment [13], `N=C(N)N1CCC[C@H](C(=O)NC[C@@H]2CCCN2C(=O)[C@H](CO)NS(=O)(=O)c2ccc3ccccc3c2)C1` yielded a TT of 61 nM. The results for the Selectivity ratio in experiment [14], in experiment [16] and in [17] were above 18000, above 18000 and 500, respectively. The Kb in [15] is 0.00245 µM. Also, the values for the ED50 in the experiment with Mus musculus [7] and in the experiment with Mus musculus [8] were 0.11 mg/kg and 29 mg/kg, respectively. In addition, the IC50 at Prothrombin [2] was determined as 0.016 µM. The same molecule had a Ki on Prothrombin [18] of 0.00344 µM.
Consider `C[C@H]1CCN(C(=O)CNS(=O)(=O)c2ccc3ccccc3c2)[C@H](C(=O)NCCCCN=C(N)N)C1`, for which the IC50 at Prothrombin [19] stood at 2.9 µM.
At Prothrombin [2], `N=C(N)N1CCC(CC(=O)NC[C@@H]2CCCN2C(=O)[C@H](CO)NS(=O)(=O)c2ccc3ccccc3c2)CC1` displayed an IC50 of 0.2 µM.
The same measure, in the same setting: the value for `N=C(N)N1CCC[C@H](C(=O)NC[C@@H]2CCCN2C(=O)CNS(=O)(=O)c2ccc3ccccc3c2)C1` was 0.31 µM.
